# Laboratory results published in patent US20190151350A1, “DEPOLYMERIZED HOLOTHURIAN GLYCOSAMINOGLYCAN COMPOSITION AND PREPARATION METHOD AND APPLICATION THEREOF” (Suzhou Yi-hua Biomedical Technology co., Ltd, priority 2017, published 2019).
# Test system: 4T1 murine mammary carcinoma
# Experiment: Orthotopic 4T1 murine mammary carcinoma model, lung metastasis
# Format: in vivo, BALB/C mice
# Procedure: 4T1 cells are cultured with RPMI-1640 culture solution, wherein the concentration of added fetal calf serum is 10%, a penicillin/streptomycin double-antibody is diluted in the culture solution based on the ratio of 1:100, and the cells are cultured in a thermostatic incubator which contains 5% CO2 and has a saturation temperature of 37° C. The cells are subjected to passage every other 2-3 days based on the ratio of 1:3-1:5. BALB/C mice are randomly divided into 7 groups, and a fourth fat pad of the breast is inoculated with 1×10^5 4 T1 cells. Then 20 mg/kg, 40 mg/kg and 80 mg/kg […] and 4 mg/kg dalteparin are injected to each group respectively. Mice were observed daily. Body weights and tumor volumes were recorded three times per week during the experiment. Breast tumors are removed after continuous administration for 12 days, and then 4 mg/kg cisplatin is […] to each group from the 13th thy, once in every four days. On the 30th day, anesthesia is conducted, the mice are sacrificed, lungs and spleens are taken out, washed and weighted. Photos were taken and lung samples were fixed in 10% neutral for metastatic nodule count and HE staining
# [1] = cisplatin alone or combined with dHG10092, compared with negative control group
smiles,measurement,setting,value
N.N.[Cl][Pt][Cl] [Cisplatin],body weight,"cisplatin 4 mg/kg, alone or in a combination",can cause weight reduction
same,lung weight,[1],much lower
same,spleen weight,[1],much lower
same,lung tumor area range (HE staining),cisplatin independently or with dHG10092,remarkably reduce the lung tumor area range
